Assays:
GluN2B = test: Western blot of GluN2B protein in cultured fetal cortical cells; type: cell-based, mice
Procedure: The amount of GluN2B reacted with the compound of the present disclosure was measured using Western blot. The fetal cerebral cortex was extracted from mice at 17 days of gestation, dissociated into single cells, cultured for 13 days, and treated with BnH drugs for 24 hours. The drug-treated cells were subjected to protein lysate preparation using RIPA protein lysis buffer containing protease and phosphatase inhibitors. The protein concentration was determined using a BCA protein assay kit (Pierce Biotechnology) using bovine serum albumin as a standard. Equal amounts of protein (20 μg per lane) were separated by electrophoresis on SDS-polyacrylamide gels at 90 V for 2 hours, then transferred from the SDS-polyacrylamide gel to PVDF membrane at 100 V for 1 hour. Then, primary reaction with GluN2B antibody (ab65783, Abcam) was performed at 4° C. for 1 day, washed three times at 10-minutes intervals with 1×PBT, and secondary reaction was performed with anti-mouse antibody (sc-2357, Santa Cruz) for 1 hour, followed by washing three times at 10-minutes intervals with 1×PBT. Western blotting was performed as described above to confirm GluN2B protein expression. Subsequently, each blot was re-probed using anti-β-actin antibody (sc-47778, Santa Cruz). Housekeeping protein β-actin was detected as a normalization control.
The increase and decrease of BnH12 series were confirmed by setting the vehicle to 1 (N for each group was 3 or more).
Using the experimental procedure described in Example 3, it was determined whether various BnH12 series compounds increase GluN2B expression, and the results are shown in Table 6. These in vitro experimental results are expressed as relative values to the group (vehicle) that was not treated with the compound, with the effect of the group set to 1.

HDAC7 = molecular target: T1, HDAC7 (Homo sapiens, UniProt Q8WUI4); test: HDAC catalytic activity, fluorogenic substrate; type: biochemical; details: 10-dose, 3-fold serial dilution starting at 100 μM, duplicates
T1 sequence (Q8WUI4 1-952): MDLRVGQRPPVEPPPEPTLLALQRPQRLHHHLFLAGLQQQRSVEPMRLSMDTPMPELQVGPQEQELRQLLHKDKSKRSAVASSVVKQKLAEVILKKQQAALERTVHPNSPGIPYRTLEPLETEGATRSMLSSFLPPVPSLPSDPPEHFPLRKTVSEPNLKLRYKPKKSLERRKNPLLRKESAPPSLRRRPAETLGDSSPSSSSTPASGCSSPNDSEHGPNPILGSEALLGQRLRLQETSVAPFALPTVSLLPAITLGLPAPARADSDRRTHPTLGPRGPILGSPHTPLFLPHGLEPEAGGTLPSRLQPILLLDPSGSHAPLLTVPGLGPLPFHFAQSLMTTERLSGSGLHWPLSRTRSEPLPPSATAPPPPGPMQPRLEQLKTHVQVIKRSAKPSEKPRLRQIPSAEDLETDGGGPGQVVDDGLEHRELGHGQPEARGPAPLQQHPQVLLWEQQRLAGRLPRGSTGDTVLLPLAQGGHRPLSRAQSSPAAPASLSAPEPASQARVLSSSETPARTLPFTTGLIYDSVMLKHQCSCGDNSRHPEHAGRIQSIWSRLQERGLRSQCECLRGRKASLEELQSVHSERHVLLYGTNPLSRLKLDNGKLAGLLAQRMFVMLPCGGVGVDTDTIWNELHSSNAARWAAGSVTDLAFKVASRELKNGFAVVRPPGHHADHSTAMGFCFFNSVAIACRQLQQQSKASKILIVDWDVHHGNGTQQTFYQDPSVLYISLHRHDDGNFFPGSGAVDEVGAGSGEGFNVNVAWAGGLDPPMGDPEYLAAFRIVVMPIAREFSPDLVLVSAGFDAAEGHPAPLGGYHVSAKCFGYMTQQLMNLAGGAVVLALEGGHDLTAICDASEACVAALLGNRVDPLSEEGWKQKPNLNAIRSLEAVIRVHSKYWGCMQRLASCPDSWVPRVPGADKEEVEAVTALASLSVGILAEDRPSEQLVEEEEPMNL
Procedure: The compound (racemate) was resuspended in 100 mM DMSO and tested in a 10-dose IC50 with 3-fold serial dilution starting at 100 μM against HDACs 1-9, and 11. As reference compounds, Trichostatin A (TSA) and TMP269 were tested in a 10-dose IC50 with 3-fold serial dilution starting at 10 μM or 1 μM.
10 μM Fluorogenic peptide from p53 residues 379-382 (RHKK(Ac)AMC) was used for the substrate for HDAC 1, 2, 3, and 6, 50 μM Fluorogenic HDAC Class2a Substrate (Trifluoroacetyl Lysine) was used for the substrate for HDAC 4, 5, 7, 9, and 11, 100 μM Fluorogenic peptide from p53 residues 379-382 (RHK(Ac)K(Ac)AMC) was used for the substrate for HDAC8.
IC50 values were calculated using the GraphPad Prism 4 program based on a sigmoidal dose-response equation and the blank (DMSO) value concentration was entered as 1.00E-12 M for curve fitting.

[1] = system: BDNF and GluN2B expression in SH-SY5Y cells; test: Expression of BDNF and GluN2B in SH-SY5Y cells; type: cell-based, human; details: 1 μM, application for 6 and 24 hours
Procedure: Human undifferentiated neuroblastoma cell line SH-SY5Y and human embryonic kidney cell line (HEK)-293T were purchased from Korean Cell Line Bank (Korea) and Takara (Japan), respectively. Cells were grown in HyClone Minimal Essential Medium (MEM) and Dulbecco's Modified Eagle Medium (DMEM), respectively, supplemented with 10% (v/v) fetal bovine serum (FBS), penicillin (100 U/mL), and streptomycin ([…]). Cells were maintained in a humidified atmosphere of 95% air and 5% CO2 at 37° C. Cells were passaged 10 times at maximum. Cells were dissociated using 0.05% trypsin-EDTA solution and the cells were seeded in new culture dishes for maintenance.

C[C@@H]1CC[C@H](C(=O)O)CN1C(=O)Cc1ccc(F)cc1Cl [BnH12001 enantiomer (3S,6R, 98%<), (3S,6R)-1-(2-(2-chloro-4-fluorophenyl)acetyl)-6-methylpiperidine-3-carboxylic acid]
Effect on GluN2B expression compared to the vehicle (GluN2B; comment on Table 6): excellent effects | GluN2B expression, Western blot results, Mean (GluN2B; relative value, vehicle set to 1, treated for 24 hours, N 3 or more): 1.548

CC1CCC(C(=O)O)CN1C(=O)Cc1ccc(F)cc1Cl (racemic) [BnH12001, 1-(2-(2-chloro-4-fluorophenyl)acetyl)-6-methylpiperidine-3-carboxylic acid]
Inhibitory effect on HDAC7 catalytic activity (HDAC7): did not show any inhibitory effect | BDNF expression [1]: augmented | GluN2B expression [1]: augmented
